Data: patent EP4678638A1, “NEW E3 UBIQUITIN LIGASE LIGAND, PROTEIN DEGRADATION AGENT AND USE THEREOF” (priority 2023, dated 2024)

Key:
[1] = target: T1, IRAK4 (Homo sapiens, UniProt Q9NWZ3); experiment: Western blot degradation of IRAK4 (hPBMC); assay type: cell-based; details: Table D1
T1 construct: evaluate the effects of the compounds of the present disclosure on the expression of target proteins in cells; endogenous in cells; host or cells: hPBMC
T1 sequence (Q9NWZ3 1-460): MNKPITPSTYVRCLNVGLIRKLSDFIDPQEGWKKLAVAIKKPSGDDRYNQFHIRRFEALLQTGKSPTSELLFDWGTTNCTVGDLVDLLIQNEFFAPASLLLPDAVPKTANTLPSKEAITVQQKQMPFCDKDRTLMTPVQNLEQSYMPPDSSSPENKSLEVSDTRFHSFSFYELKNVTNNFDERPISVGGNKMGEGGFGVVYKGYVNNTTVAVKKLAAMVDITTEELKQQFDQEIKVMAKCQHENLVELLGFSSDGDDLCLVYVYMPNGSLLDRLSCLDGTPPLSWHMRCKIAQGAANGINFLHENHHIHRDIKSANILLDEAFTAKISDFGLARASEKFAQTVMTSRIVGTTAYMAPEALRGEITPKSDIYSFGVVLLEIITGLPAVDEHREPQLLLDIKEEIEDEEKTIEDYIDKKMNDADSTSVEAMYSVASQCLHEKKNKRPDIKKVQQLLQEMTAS
Outline: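 Quantification by ImageJ densitometry of Western blot bands: DC50 is the fitted concentration halving band intensity relative to DMSO. Percent remaining uses internal-control normalization, and degradation rate is its complement.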

[2] = test system: MM.1S; experiment: CCK-8 proliferation, MM.1S; assay type: cell-based; details: Homo sapiens, MM1.S; Table B10, compounds designed based on the IRAK4 inhibitors; MM.1S cells; read-out: Inhibitory activity (IC50, nM) on tumor cell proliferation, MM.1S
Outline: (§1)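 Cells seeded, then after 24 h treated with 10 concentrations (top 10 µM, 5-fold serial dilution) for a line-specific time at 37°C, 5% CO2. Viability read by CCK-8; IC50 fitted from growth-inhibition curves.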

[3] = test system: SR; experiment: CCK-8 proliferation, SR; assay type: cell-based, Human; details: Homo sapiens; Table B10, compounds designed based on the IRAK4 inhibitors; SR cells; read-out: Inhibitory activity (IC50, nM) on tumor cell proliferation, SR
Outline: as §1

[4] = target: T2, human Cereblon WT GST-tagged protein (Homo sapiens, UniProt Q96SW2); experiment: CRBN binding, HTRF (CEREBLON BINDING kit); details: Table II-2, CRBN binding screening, HTRF; for inhibition at 0.5 µM: read-out: Inhibition rate (%) at 0.5µM; for inhibition at 2 µM: read-out: Inhibition rate (%) at 2 µM
T2 construct: purchased CISBIO 64BDCRBNPEH
Outline: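 Competitive HTRF: GST-tagged human WT Cereblon mixed with compound, Thalidomide-Re tracer and GST Eu antibody, incubated 3 h at room temperature. Signals read at 620 and 665 nm.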

T2 sequence (Q96SW2 whole entry): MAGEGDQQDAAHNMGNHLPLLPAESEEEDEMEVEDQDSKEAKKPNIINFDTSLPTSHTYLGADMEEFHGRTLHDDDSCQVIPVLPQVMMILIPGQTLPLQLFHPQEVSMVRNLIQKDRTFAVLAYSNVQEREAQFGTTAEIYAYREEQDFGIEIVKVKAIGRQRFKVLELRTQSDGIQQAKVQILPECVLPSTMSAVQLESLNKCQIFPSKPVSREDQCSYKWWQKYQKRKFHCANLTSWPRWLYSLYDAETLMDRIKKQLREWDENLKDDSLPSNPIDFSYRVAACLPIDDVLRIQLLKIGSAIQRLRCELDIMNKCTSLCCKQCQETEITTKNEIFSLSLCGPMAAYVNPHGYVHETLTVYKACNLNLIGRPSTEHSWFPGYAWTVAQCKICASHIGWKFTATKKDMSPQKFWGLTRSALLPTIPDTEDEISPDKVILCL

Compound | Degradation of substrate protein IRAK4 (substrate protein remaining %) [1] | IC50 [2] [nM] | IC50 [3] [nM] | inhibition at 0.5 µM ([4]; at 0.5µM) [%] | inhibition at 2 µM ([4]; at 2 µM) [%] | Inhibition rate (%) at 0.5µM ([4]; at 0.5µM) | Inhibition rate (%) at 2 µM ([4]; at 2 µM)
O=C1CCN(c2ccc(CN3CCC(n4cc(NC(=O)c5coc(-c6ccnc(NCC7CC7)c6)n5)c(C(F)F)n4)CC3)cc2)C(=O)N1 [GT-04956, 2-(2-((cyclopropylmethyl)amino)pyridin-4-yl)-N-(3-(difluoromethyl)-1-(1-(4-(2,4-dioxotetrahydropyrimidin-1(2H)-yl)benzyl)piperidin-4-yl)-1H-pyrazol-4-yl)oxazole-4-carboxamide] | A (A is defined as 0% ≤ substrate protein remaining % ≤ 80%) | 100 to 500 |  |  |  |  | 
O=C1CCN(c2ccc(CN3CCC(n4cc(NC(=O)c5coc(-c6ccnc(NCC7CC7)c6)n5)c(C(F)F)n4)CC3)nc2)C(=O)N1 [GT-04958, 2-(2-((cyclopropylmethyl)amino)pyridin-4-yl)-N-(3-(difluoromethyl)-1-(1-((5-(2,4-dioxotetrahydropyrimidin-1(2H)-yl)pyridin-2-yl)methyl)piperidin-4-yl)-1H-pyrazol-4-yl)oxazole-4-carboxamide] | A (A is defined as 0% ≤ substrate protein remaining % ≤ 80%) | 100 to 500 |  |  |  |  | 
O=C1CCC(Nc2cccc(CN3CCN(Cc4ccc5c(c4)nc(NC(=O)c4cccc(C(F)(F)F)c4)n5C4CCC(CO)CC4)CC3)c2)C(=O)N1 (stereo not shown) [GT-04976, N-(5-((4-(3-((2,6-dioxopiperidin-3-yl)amino)benzyl)piperazin-1-yl)methyl)-1-((1s,4s)-4-(hydroxymethyl)cyclohexyl) -1H-benzo[d]imidazol-2-yl)-3-(trifluoromethyl)benzamide] | A (A is defined as 0% ≤ substrate protein remaining % ≤ 80%) | 100 to 500 | 100 to 500 |  |  |  | 
COc1cc2nn(C3CCN(Cc4ccc(C5CCC(=O)NC5=O)cn4)CC3)cc2cc1NC(=O)c1cccc(C(F)(F)F)c1 (stereo not shown) [GT-07417, N-(2-(1-((5-(2,6-dioxopiperidin-3-yl)pyridin-2-yl)methyl)piperidin-4-yl)-6-methoxy-2H-indazol-5-yl)-3-(trifluoromethyl)benzamide] | A (A is defined as 0% ≤ substrate protein remaining % ≤ 80%) |  |  | 30 to 40 | 60 to 80 |  | 
COc1cc2nn(C3CCN(Cc4cncc(C5CCC(=O)NC5=O)c4)CC3)cc2cc1NC(=O)c1cccc(C(F)(F)F)c1 (stereo not shown) [GT-07419, N-(2-(1-((5-(2,6-dioxopiperidin-3-yl)pyridin-3-yl)methyl)piperidin-4-yl)-6-methoxy-2H-indazol-5-yl)-3-(trifluoromethyl)benzamide] | A (A is defined as 0% ≤ substrate protein remaining % ≤ 80%) |  |  | 20 to 30 | 53 to 60 |  | 
COc1cc2nn(C3CCN(Cc4cncc(N5CCC(=O)NC5=O)c4)CC3)cc2cc1NC(=O)c1cccc(C(F)(F)F)n1 [GT-07533, N-(2-(1-((5-(2,4-dioxotetrahydropyrimidin-1(2H)-yl)pyridin-3-yl)methyl)piperidin-4-yl)-6-methoxy-2H-indazol-5-yl)-6-(trifluoromethyl)picolinamide] | A (A is defined as 0% ≤ substrate protein remaining % ≤ 80%) |  |  | 10 to 20 | 53 to 60 |  | 
CC(C)(O)c1cc2nn(C3CCN(Cc4ccnc(C5CCC(=O)NC5=O)c4)CC3)cc2cc1NC(=O)c1cccc(C(F)(F)F)n1 (stereo not shown) [GT-07542, N-(2-(1-((2-(2,6-dioxopiperidin-3-yl)pyridin-4-yl)methyl)piperidin-4-yl)-6-(2-hydroxypropan-2-yl)-2H-indazol-5-yl)-6-(trifluoromethyl)picolinamide] | A (A is defined as 0% ≤ substrate protein remaining % ≤ 80%) |  |  | 30 to 40 | 60 to 80 |  | 
CC(C)(O)c1cc2nn(C3CCN(Cc4cncc(C5CCC(=O)NC5=O)c4)CC3)cc2cc1NC(=O)c1cccc(C(F)(F)F)n1 (stereo not shown) [GT-07543, N-(2-(1-((5-(2,6-dioxopiperidin-3-yl)pyridin-3-yl)methyl)piperidin-4-yl)-6-(2-hydroxypropan-2-yl)-2H-indazol-5-yl)-6-(trifluoromethyl)picolinamide] | A (A is defined as 0% ≤ substrate protein remaining % ≤ 80%) |  |  | 30 to 40 | 60 to 80 |  | 
CC(C)Nc1cc(-n2ccc3cc(C#N)cnc32)ncc1C(=O)NC1CCN(Cc2cc(C3CCC(=O)NC3=O)cnc2F)CC1 (stereo not shown) [GT-07544, 6-(5-cyano-1H-pyrrolo[2,3-b]pyridin-1-yl)-N-(1-((5-(2,6-dioxopiperidin-3-yl)-2-fluoropyridin-3-yl)methyl)piperidin-4-yl)-4-(isopropylamino)nicotinamide] | A (A is defined as 0% ≤ substrate protein remaining % ≤ 80%) |  |  | 53 to 60 | 80 to 100 |  | 
COc1cc2nn(C3CCN(Cc4cc(C5CCC(=O)NC5=O)cnc4F)CC3)cc2cc1NC(=O)c1cccc(C(F)(F)F)n1 (stereo not shown) [GT-07549, N-(2-(1-((5-(2,6-dioxopiperidin-3-yl)-2-fluoropyridin-3-yl)methyl)piperidin-4-yl)-6-methoxy-2H-indazol-5-yl)-6-(trifluoromethyl)picolinamide] | A (A is defined as 0% ≤ substrate protein remaining % ≤ 80%) |  |  | 40 to 53 | 80 to 100 |  | 
CC(C)(O)c1cc2nc(C3CCN(Cc4ccc(C5CCC(=O)NC5=O)cn4)CC3)sc2cc1NC(=O)c1cccc(C(F)(F)F)n1 (stereo not shown) [GT-07623, N-(2-(1-((5-(2,6-dioxopiperidin-3-yl)pyridin-2-yl)methyl)piperidin-4-yl)-5-(2-hydroxypropan-2-yl)benzo[d]thiazol-6-yl)-6-(trifluoromethyl)picolinamide] | A (A is defined as 0% ≤ substrate protein remaining % ≤ 80%) |  |  |  |  | a2 (20% < a2 ≤ 30%) | a6 (60% < a6 ≤ 80%)
CC(C)(O)c1cc2nc(C3CCN(Cc4cncc(C5CCC(=O)NC5=O)c4)CC3)sc2cc1NC(=O)c1cccc(C(F)(F)F)n1 (stereo not shown) [GT-07624, N-(2-(1-((5-(2,6-dioxopiperidin-3-yl)pyridin-3-yl)methyl)piperidin-4-yl)-5-(2-hydroxypropan-2-yl)benzo[d]thiazol-6-yl)-6-(trifluoromethyl)picolinamide] | A (A is defined as 0% ≤ substrate protein remaining % ≤ 80%) |  |  | 20 to 30 | 60 to 80 |  | 
CC(C)(O)c1cc2nc(C3CCN(Cc4cc(N5CCC(=O)NC5=O)ncc4F)CC3)oc2cc1NC(=O)c1cccc(C(F)(F)F)n1 [GT-07626, N-(2-(1-((2-(2,4-dioxotetrahydropyrimidin-1(2H)-yl)-5-fluoropyridin-4-yl)methyl)piperidin-4-yl)-5-(2-hydroxypropan-2-yl)benzo[d]oxazol-6-yl)-6-(trifluoromethyl)picolinamide] | A (A is defined as 0% ≤ substrate protein remaining % ≤ 80%) |  |  | 20 to 30 | 60 to 80 |  | 
CC(C)(O)c1cc2nc(C3CCN(Cc4cncc(N5CCC(=O)NC5=O)c4)CC3)oc2cc1NC(=O)c1cccc(C(F)(F)F)n1 [GT-07628, N-(2-(1-((5-(2,4-dioxotetrahydropyrimidin-1(2H)-yl)pyridin-3-yl)methyl)piperidin-4-yl)-5-(2-hydroxypropan-2-yl)benzo[d]oxazol-6-yl)-6-(trifluoromethyl)picolinamide] | A (A is defined as 0% ≤ substrate protein remaining % ≤ 80%) |  |  | 20 to 30 | 60 to 80 |  | 
CC(C)(O)c1cc2nc(C3CCN(Cc4ccc(C5CCC(=O)NC5=O)cn4)CC3)oc2cc1NC(=O)c1cccc(C(F)(F)F)n1 (stereo not shown) [GT-07763, N-(2-(1-((5-(2,6-dioxopiperidin-3-yl)pyridin-2-yl)methyl)piperidin-4-yl)-5-(2-hydroxypropan-2-yl)benzo[d]oxazol-6-yl)-6-(trifluoromethyl)picolinamide] | A (A is defined as 0% ≤ substrate protein remaining % ≤ 80%) |  |  | 40 to 53 | 60 to 80 |  | 
